The values that follow come from patent publication US20050260202A1, “Methods for producing proliferating muscle cells” (The Regents of the University of California, priority 2004, published 2005).

One test concerns C2C12 cells. Kind of test: Fyn mutant assay: GFP-positive myoblasts to myotubes. It counts as cell-based, mouse. Particulars: five days in differentiation medium. The source says:
This example describes the expression of wild type and mutant Fyn proteins to analyse the role of Fyn in Sca-1-mediated myogenesis. Briefly, a 1615 bp fragment of pCMV-FynDN (Ko et al., J. Biol Chem, 277:46085-46092, 2002), containing the full-length, dominant negative K299M mutant of mouse Fyn, was PCR-amplified using primers 5′-TTATGCGGCC GCATGGGCTGTG TGCAATGTAAGG-3′ (SEQ ID NO:7) and 5′-GCATGCATGC TACAGGTTT TCACCAGGTT GG-3′ (SEQ ID NO:8) and cloned into the NotI/SphI sites of pIRES-hrGFP-1a (Stratagene). The pCMV-FynDN plasmid was kindly provided by Marilyn Resh (Sloan-Kettering Cancer Center). Similarly, a 1.6 kb BamHI fragment of Fyn-Y531F (Maulon et al., Oncogene, 20:1964-1972, 2001), containing the full-length, constitutively active Y531F mutant of mouse Fyn, was cloned into the BamHI site of pIRES-hrGFP-1a (Stratagene). The Fyn-Y531F DNA was generously provided by Patrick Auberger (INSERM). […] Expression of mutants and GFP was determined by immunoblot of whole cell lysates from transfected C2C12 cells with anti-Fyn antibody (Santa Cruz Biotechnology), and immunofluorescence detection of GFP in live cells. […] Data was acquired with a Nikon Microphot-FX fluorescence microscope and Spot imaging software. […] The effect of Fyn mutants on cell fusion was measured as the ratio of GFP-positive mononuclear myoblasts to GFP-positive myotubes (cells with 2 or more nuclei).

The target in test [1] is murine Sca-1 (stem cell antigen-1) (murine) (UniProt P05533). As to the kind of experiment: cell-based or functional assay.
Sequence of UniProt P05533 (P05533 27-112 limits assumed): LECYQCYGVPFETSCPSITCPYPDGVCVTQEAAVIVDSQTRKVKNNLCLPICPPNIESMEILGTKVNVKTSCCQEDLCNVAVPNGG
In test [2] the test system is QM7 avian myoblasts. Kind of test: BrdU incorporation in QM7 cells. Particulars: QM7, differentiation conditions, PIPLC 5 U/ml. It counts as cell-based, quail. The source says: (§1) Actively growing C2C12, Sol8, and L6 skeletal myoblasts (ATCC) were maintained in DMEM with 10%, 20%, or 10% FBS, respectively. QM7 quail skeletal myoblasts (kindly provided by Charles Ordahl, UCSF) were maintained in M199 medium with 10% tryptose phosphate and 10% FBS. Myoblast differentiation was induced by culture of confluent monolayers in DMEM with 1% FBS for C2C12 and Sol8 cells, 2% horse serum for L6 cells, or M199 medium with 10% tryptase phosphate and 0.5% FBS for QM7 cells. For PIPLC treatment, 5 U/ml of PIPLC (Sigma) was added into the culture medium when cells reached confluence, and with daily media changes. […]
(§2) Cells were plated on cover slips, cultured under conditions described above in Example 1, and labeled with BrdU for 60 min using Labeling and Detection Kit I (Roche) according to the manufacturer's instructions. […] Immunofluorescence signals were acquired with a Nikon Microphot-FX fluorescence microscope and Spot imaging software. Nuclei from low-power (10×) images were analyzed to quantitate BrdU incorporation and myoblast fusion. Each culture stage was analyzed in triplicate, with data representing the mean of 10 high-power fields. Cell proliferation was calculated as percent BrdU-positive nuclei per field. Cell fusion was calculated as average number of DAPI staining nuclei per myotube.
For orientation: Uptake of a labelled nucleoside into DNA is a usual measure of proliferation.

In test [3] the test system is L6 rat myoblasts. As to the kind of experiment: BrdU incorporation in L6 cells. Type of test: cell-based. Particulars: L6, differentiation conditions, PIPLC 5 U/ml.
Source text: as §1, §2

Test [4] deals with Sol8 murine myoblasts. As to the kind of experiment: Myoblast fusion assay in Sol8 cells. It counts as cell-based, mouse. To be noted: Sol8, differentiation conditions, PIPLC 5 U/ml.
Source text: as §1, §2

The subject of test [5] is C2C12 myoblasts. As to the kind of experiment: BrdU incorporation (cell proliferation) in C2C12 cells. It counts as cell-based, mouse. Particulars: C2C12, differentiation conditions, PIPLC 5 U/ml.
Source text: as §1, §2

Another test has as its system Sca-1. As to the kind of experiment: Sca-1 expression by immunoblot and immunostaining. To be noted: C2C12 cells. Type of test: cell-based, mouse. As for the experimental part: Immunoblot analysis was performed using previously described methods (Hlaing et al., J Biol Chem, 277:23794-23799, 2002). Briefly, cells were lysed by sonication in lysis buffer (50 mM Tris-HCl, pH 7.5, 150 mM NaCl, 3 mM EDTA, 3 mM EGTA, 1% SDS, 10% glycerol), boiled for 5 min, and centrifuged at 16,000×g for 2 min. Protein concentrations of supernatants were measured by BCA assay (Pierce), and equal amounts of protein (100-200 μg) were separated by SDS-polyacrylamide gel electrophoresis. Immunoblots were analyzed with 5 μg/ml monoclonal antibody against Sca-1 (Pharmingen) or β-actin (Sigma), and 1 μg/ml HRP-conjugated goat-anti mouse IgG (Bio-Rad).
To detect Sca-1, Myf5, MyoD, and myogenin in situ, wild type and stably transfected C2C12 cells were plated on cover slips, grown as described for the indicated lengths of time, and stained with either 2.5 μg/ml monoclonal anti-Sca-1 antibody (clone E13-161.7; Pharmingen) and 4 μg/ml FITC-conjugated goat anti-rat IgG (Pharmingen), or 10 μg/ml rabbit polyclonal anti-Myf5, anti-MyoD, or anti-myogenin antibody (Santa Cruz Biotechnology) and 2 μg/ml FITC-conjugated goat anti-rabbit IgG (Molecular Probes), as previously described (Liu et al., Cell Biochem Biophys, 39:119-131, 2003).
(A western blot detects proteins with antibodies after separation by electrophoresis.)

Test [6] deals with Sol8 murine myoblasts. Kind of test: BrdU incorporation in Sol8 cells. It counts as cell-based, mouse. Particulars: Sol8, differentiation conditions, PIPLC 5 U/ml.
Source text: as §1, §2

Test [7] concerns QM7 avian myoblasts. As to the kind of experiment: Myoblast fusion assay in QM7 cells. It counts as cell-based, quail. Particulars: QM7, differentiation conditions, PIPLC 5 U/ml.
Source text: as §1, §2

The test system of test [8] is L6 rat myoblasts. Kind of test: Myoblast fusion assay in L6 cells. Type of test: cell-based. To be noted: L6, differentiation conditions, PIPLC 5 U/ml.
Source text: as §1, §2

The subject of test [9] is C2C12 myoblasts. As to the kind of experiment: Myoblast fusion assay in C2C12 cells. It counts as cell-based, mouse. Particulars: C2C12, differentiation conditions, PIPLC 5 U/ml.
Source text: as §1, §2

On to “constitutively active form of Fyn: Full-length constitutively active Y531F mutant of mouse Fyn, co-expressed with GFP from pIRES-hrGFP-1a”, for which the “ratio of transfected myoblasts to myotubes” value in the test with C2C12 cells (wild type C2C12 cells) was 4.9+/−1.7.

As for “dominant-negative mutant of Fyn: Full-length dominant negative K299M mutant of mouse Fyn, co-expressed with GFP from pIRES-hrGFP-1a”, in the test on C2C12 cells (Sca-1 antisense-expressing cells), the “ratio of transfected myoblasts to myotubes” value is on record as 2.3+/−0.7.

Turning to “monoclonal anti-Sca-1 antibody, clone D7 (Pharmingen)”, in test [1], the BrdU positive nuclei (proliferation), E13-161.7 and D7 in combination versus untreated (% BrdU positive nuclei) worked out at 11; the nuclei per myotube (myoblast fusion), E13-161.7 and D7 in combination versus untreated (nuclei per myotube) is 14.

In the case of “monoclonal rat anti-Sca-1 antibody, clone E13-161.7 (Pharmingen)”, in test [1], the BrdU positive nuclei (proliferation), E13-161.7 and D7 in combination versus untreated (% BrdU positive nuclei) was 11; the nuclei per myotube (myoblast fusion), E13-161.7 and D7 in combination versus untreated (nuclei per myotube) was found to be 14.

For the substance “phosphatidylinositol-specific phospholipase-C [PIPLC]”, the BrdU incorporation is reported as 48±5 % BrdU positive nuclei in the test on QM7 avian myoblasts [2], 20±2 % BrdU positive nuclei with L6 rat myoblasts [3], 37±2 % BrdU positive nuclei with C2C12 myoblasts [5] and 18±2 % BrdU positive nuclei in the test with Sol8 murine myoblasts [6]. The myoblast fusion is reported as 5±1 nuclei/myotube in the test with Sol8 murine myoblasts [4], 1±0.2 nuclei/myotube with QM7 avian myoblasts [7], 2±1 nuclei/myotube with L6 rat myoblasts [8] and 3±1 nuclei/myotube in the test on C2C12 myoblasts [9]. For the same substance, the “removal of Sca-1 from cell surface” value in the test on Sca-1 is recorded as “strips Sca-1 from the surface”.
